According to US20070027130A1, “Tricyclic 6-alkylidene-penem beta-lactamase inhibitors and beta-lactam antibiotic combination: a broad spectrum antibiotic” (priority 2005, published 2007):

Legend:
Assay in all cases: MIC microbroth dilution
Type in all cases: cell-based
[1] = test system: K. pn GC 2006 (TEM-10 + SHV-1); conditions: Klebsiella pneumoniae, β-lactamase class A, A (ESBL), MHBII, 35° C. 18 hr, read-out: Minimal Inhibitory Concentration
Procedure: (§1) The in vitro activities of the antibiotics were determined by the microbroth dilution method as recommended by the National Committee for Clinical Laboratory Standards (NCCLS). (NCCLS. 2000. Methods for Dilution Antimicrobial Susceptibility Tests for Bacteria That Grow Aerobically; Approved Standards: M7-A5, vol. 19. National Committee for Clinical Laboratory Standards, Villanova, Pa.). Mueller-Hinton II broth (MHBII) (BBL Cockeysville, Md.), was used for the testing procedure. […]. The plates were incubated for 18-22 hours at 35 C. in ambient air.

[2] = test system: E. coli GAR 6649 TEM, OXA, CTX (By PCR only); conditions: Escherichia coli, β-lactamase class A, A (ESBL), D, MHBII, 35° C. 18 hr, read-out: Minimal Inhibitory Concentration
Procedure: as §1

[3] = test system: E. cloacae GC 6991 (AmpC); conditions: Enterobacter cloacae, β-lactamase class C, MHBII, 35° C. 18 hr, read-out: Minimal Inhibitory Concentration
Procedure: as §1

[4] = test system: K. pneumoniae GC 7823 Fox 5; conditions: Klebsiella pneumoniae, GC7823FOX5, β-lactamase class C, MHBII, 35° C. 18 hr, read-out: Minimal Inhibitory Concentration
Procedure: as §1

[5] = test system: E. coli GAR 5929 TEM, OXA, Act-1 , CTX (By PCR only); conditions: Escherichia coli, β-lactamase class A, C, D, MHBII, 35° C. 18 hr, read-out: Minimal Inhibitory Concentration
Procedure: as §1

[6] = test system: E. aerogenes GC 7039 TEM-4, Amp C inducable; conditions: Klebsiella aerogenes, β-lactamase class A (ESBL), MHBII, 35° C. 18 hr, read-out: Minimal Inhibitory Concentration
Procedure: as §1

[7] = test system: K. pneumoniae GC 7636 TEM-1 KPC-2 SHV-12; conditions: Klebsiella pneumoniae, 18 h, read-out: Minimal Inhibitory Concentration
Procedure: as §1

[8] = test system: E. cloacae GC 7052 SHV-5, Amp C inducable; conditions: Enterobacter cloacae, β-lactamase class A (ESBL), MHBII, 35° C. 18 hr, read-out: Minimal Inhibitory Concentration
Procedure: as §1

[9] = test system: E. coli GC 2015 (TEM-10 + SHV-1); conditions: Escherichia coli, β-lactamase class A, A (ESBL), MHBII, 35° C. 18 hr, read-out: Minimal Inhibitory Concentration
Procedure: as §1

[10] = test system: K. oxytoca GC 7627 TEM-1 K1 KPC-2; conditions: Klebsiella oxytoca, 18 h, read-out: Minimal Inhibitory Concentration
Procedure: as §1

[11] = test system: K. pneumoniae GC 7822 Act 1; conditions: Klebsiella pneumoniae, GC7822ACT1, β-lactamase class C, MHBII, 35° C. 18 hr, read-out: Minimal Inhibitory Concentration
Procedure: as §1

E. coli GC 6539 CMY-2 = conditions: Escherichia coli, GC6539CMY2, β-lactamase class C, MHBII, 35° C. 18 hr, read-out: Minimal Inhibitory Concentration
Procedure: as §1

[12] = test system: E. coli GC 1695 (TEM-1 + TEM-10); conditions: Escherichia coli, β-lactamase class A, A (ESBL), MHBII, 35° C. 18 hr, read-out: Minimal Inhibitory Concentration
Procedure: as §1

[13] = test system: S. marcescens GC 4132 (AmpC); conditions: Serratia marcescens, β-lactamase class C, MHBII, 35° C. 18 hr, read-out: Minimal Inhibitory Concentration
Procedure: as §1

[14] = test system: E. cloacae GC 7065 TEM-26, SHV-12 Amp C inducable; conditions: Enterobacter cloacae, β-lactamase class A (ESBL), MHBII, 35° C. 18 hr, read-out: Minimal Inhibitory Concentration
Procedure: as §1

[15] = test system: P. aeruginosa PT 9236 PTZ-R; conditions: Pseudomonas aeruginosa, PT9236PTZR; P. aeruginosa PT 9236, piperacillin-tazobactam-resistant; MHBII, 35° C. 18 hr; read-out: Minimal Inhibitory Concentration
Procedure: as §1

[16] = test system: P. aeruginosa ATCC 27853 AmpC-inducable; conditions: Pseudomonas aeruginosa, ATCC27853, β-lactamase class C, MHBII, 35° C. 18 hr, read-out: Minimal Inhibitory Concentration
Procedure: as §1

K. pn GC 1516 (TEM-26) = conditions: Klebsiella pneumoniae, β-lactamase class A (ESBL), MHBII, 35° C. 18 hr, read-out: Minimal Inhibitory Concentration
Procedure: as §1

[17] = test system: K. pneumoniae GC 2826 Act 1 + 3 additional; conditions: Klebsiella pneumoniae, β-lactamase class A, A (ESBL), C, MHBII, 35° C. 18 hr, read-out: Minimal Inhibitory Concentration
Procedure: as §1

[18] = test system: E. cloacae PT 967 Inducible AmpC; conditions: Enterobacter cloacae, β-lactamase class C, MHBII, 35° C. 18 hr, read-out: Minimal Inhibitory Concentration
Procedure: as §1

[19] = test system: P. aeruginosa GC 4161 Stably derepressed AmpC; conditions: Pseudomonas aeruginosa, 18 h, read-out: Minimal Inhibitory Concentration
Procedure: as §1

[20] = test system: K. pneumoniae GC 2825 Act 1 + 3 additional; conditions: Klebsiella pneumoniae, β-lactamase class A, A (ESBL), C, MHBII, 35° C. 18 hr, read-out: Minimal Inhibitory Concentration
Procedure: as §1

[21] = test system: E. coli GC 2146 (TEM-1; SHV-7); conditions: Escherichia coli, β-lactamase class A, A (ESBL), MHBII, 35° C. 18 hr, read-out: Minimal Inhibitory Concentration
Procedure: as §1

[22] = test system: A. baumannii GC 7687 AmpC; conditions: Acinetobacter baumannii, GC7687AMPC, β-lactamase class C, MHBII, 35° C. 18 hr, read-out: Minimal Inhibitory Concentration
Procedure: as §1

[23] = test system: E. cloacae GC 1712 AmpC-inducible; conditions: Enterobacter cloacae, β-lactamase class C, MHBII, 35° C. 18 hr, read-out: Minimal Inhibitory Concentration
Procedure: as §1

Measured: MIC

CO/N=C(\C(=O)N[C@@H]1C(=O)N2C(C(=O)[O-])=C(C[N+]3(C)CCCC3)CS[C@H]12)c1csc(N)n1 [Cefepime]
16 µg/mL: [12] | [14] | [22]
0.12 µg/mL: [18]
2 µg/mL: E. coli GC 6539 CMY-2 | [16] | [20]
0.25 µg/mL: [23]
0.5 µg/mL: [3] | [13]
1 µg/mL: [4]
8 µg/mL: [8] | [17]
> 16 µg/mL: all other assays above
